Laboratory results from patent US20040171089A1, “High-throughput screening assay for identifying substances capable of modulating cell survival and/or proliferation” (priority 2001, published 2004).

Legend:
[1] = test system: human primary microvascular endothelial cells; experiment: Fura-2 calcium imaging, microvascular endothelial cells; type: cell-based
Method: Human adult dermal microvascular endothelial cells (catalogue number CC-2543; cells had been characterised by tests for cell type markers: positive for acetylated LDL uptake, positive for factor VIII related antigen, negative for alpha smooth muscle actin)
For calcium imaging experiments cells were plated onto poly-L-lysine coated coverslips (13 mm). Single cell imaging was performed utilizing a MiraCal Imaging facility (Life Science Resources, Cambridge, U.K.) with a Nikon Diaphot-TMD inverted epifluorescence microscope equipped with a ×40 oil immersion objective and Sutter filter wheel. The imager was equipped with a Lambert intensifier 1187 (Life Sciences Resources) providing a ×30 enhancement of the fluorescent signal, thus limiting phototoxicity.
Fura-2 acetoxymethyl ester (fura-2 AM) incubations with the cells were performed at 37° C. in a medium containing (in mM): 120 NaCl, 3.5 KCl, 0.4 KH2PO4, 5 NaHCO3, 1.2 Na2SO4, 15 glucose, 1.2 MgCl2, 1 CaCl2, and 20 TES [N-tris(hydroxymethyl) methyl-2-aminoethane sulphonic acid] pH adjusted to 7.4 with NaOH. Typically cells were incubated in 3 μM fura-2 AM for 25 min., which permitted sufficient accumulation of free fura-2 in the cell cytoplasm. Cells were then illuminated alternately at 340 and 380 nm with the emitted 505 nm light being detected by a photomultiplier. Free fura emits maximally when excited at 380 nm, whilst the calcium bound fura has a maximal emission when excited at 340 nm. Thus the ratio of emission when alternately excited at 340/380 nm is a measure of the calcium concentration in equilibrium with the chelator. Changes of intracellular calcium were quantified as the percentage increase of the fluorescent ratio (determined at ˜505 nm) obtained by exciting the test cells alternatively at 340 nm (optimal for calcium bound dye) and 380 nm.

adult dermal fibroblasts = experiment: MTS cell viability/proliferation assay, adult dermal fibroblasts; type: cell-based, human; conditions: 1-10 μM
Method: (§1) This was carried out using an MTS assay (reagents from Promega Corporation, Madison Wis., USA) which is a modification of the MTT assay (as described in Jacobson et al, 1994 EMBO J Vol 13 pp1899-1910). The assay depends on conversion of the MTS tetrazolium compound to a coloured formazan product in metabolically active cells; it is therefore an assay of viable cell number. A decline in values implies cell killing as long as cell disappearance by apoptosis in untreated cell populations is absent or negligible (as with most healthy primary cell populations).
(§2) Cells were seeded in the range 1.5×10^5-1.8×10^5 cells per ml of culture medium in 96 well microtitre plates and allowed to attach in a humidifed atmosphere of 5% CO2 in air at 37 deg C. Drugs were added 18-24 hours later and cell viability/proliferation measured at time intervals up to 48-72 hours post-drug addition when the experiment was terminated. Mean (±SE) values at each time point were obtained from wells in triplicate.
(§3) Cell viability was measured as follows: 20 μl of MTS solution (Promega) was added to wells and incubated at 37 deg C. for 3 hours during which time a coloured formazan product is generated in viable cells. […] Viable cell number was then measured by reading absorbance at 490 nm in a Dynex microtitre plate reader. […]

MDA MB 468 cells = experiment: MTS cell viability/proliferation assay, MDA MB 468 cells; type: cell-based, human; conditions: 15 minute exposure then drug-free medium; at 48 hours; MTS
Method: as §1, §2, §3

phospholipase C = experiment: Quantitative HPLC assay of inositol phosphates (IP3 levels) in MDA MB 468 cells; type: cell-based, human; conditions: [3H] inositol labelled cells
Description: The PH domain of PLC delta 1 has a higher affinity for the phosphoinositide IP3 compared to PIP2. IP3 is produced from PIP2 in response to activation of PLC. Since PIP2 is membrane-bound whereas IP3 is cytosolic, the activation of PLC can be visualised in living cells by the relocalisation of GFP-PH PLC delta 1 from membrane to cytosol. A proviso to this interpretation is that, in conditions where PIP2 levels decline relative to IP3, the net effect would be relocalisation of GFP-PH PLC delta 1 from membrane to cytosol. Thus, to exclude this possibility, quantitative phospholipid assays were performed. (In this analysis, cells were labelled with [^3H] inositol in inositol-free DMEM (In Vitrogen—Gibco) with dialysed FBS for 48 hours before exposure to sigma ligands. Cells were then lysed and subjected to quantitative HPLC assay). These assays confirmed that IP3 levels had risen in cells exposed to sigma antagonists (IP3 levels had risen to 240% and 166% of the level prior to provision of the test substance in response to IPAG and rimcazole respectively) but had not risen in cells exposed to sigma-1 or sigma-2 agonists. This confirmed activation of PLC by sigma antagonists.

[2] = 1-10 μM, microvascular endothelial cells

In the case of `N=C(Nc1ccc(I)cc1)NC1C2CC3CC(C2)CC1C3` (centres unmarked) [IPAG, 1-(4-iodophenyl)-3-(2-adamantyl)guanidine], the “% increase of cytosolic calcium (peak 340/380 nm fura-2 ratio)” value ([1]; 1 μM, microvascular endothelial cells) is reported as 119±13%, the “initial calcium rise above baseline, occurring within 1 minute” value ([1]; 10 μM, 1 mM, 0.1 mM and nominally calcium free medium) is reported as > 100% and the “% increase of cytosolic calcium (peak 340/380 nm fura-2 ratio)” value ([1]; 10 μM, microvascular endothelial cells) is reported as 293±14%. For the same compound, the “time to evident increase of cytosolic calcium after drug application” value [1, 2] was 5 to 10 s, the “time to peak effect on cytosolic calcium” value [1, 2] was ≤ 3 min and the Cytotoxicity (adult dermal fibroblasts) was “not cytotoxic”. For the same compound, the “viable cell number less than control values” (MDA MB 468 cells) was 20-30% and the “IP3 levels, % of the level prior to provision of the test substance” value (phospholipase C) was 240%.
